In assay [1] the target is [Pyruvate dehydrogenase (acetyl-transferring)] kinase isozyme 2, mitochondrial (Homo sapiens) (UniProt Q15119). Kind of assay: Inhibition of human PDHK2 assessed as residual activity at 1 uM by radiometric method.
Assay [2] addresses Protein kinase C alpha type (Homo sapiens) (UniProt P17252). Kind of assay: Inhibition of recombinant human full length PKCalpha assessed as residual activity at 1 uM using histone H1 as substrate measured after 40 mins in presence of [gamma33P]ATP by scintillation counting method relative to control.
Assay [3] has as its target CDC7/Cyclin B1 (Homo sapiens) (UniProt P14635+O00311). The assay is described as follows: Inhibition of recombinant full length human CDC7/CyclinB1 assessed as residual activity at 1 uM using Histone H1 as substrate incubated for 120 mins in presence of [gamma-33ATP] by scintillation counting based radiometry assay relative to control. Format: protein-complex assay.
Assay [4] deals with SRSF protein kinase 3 (Homo sapiens) (UniProt Q9UPE1). The assay is described as follows: Inhibition of recombinant full-length human MSSK1 assessed as residual activity at 1 uM using ERMRPRKRQGSVRRRV as substrate measured after 40 mins in presence of [gamma33P]ATP by scintillation counting method relative to control.
Assay [5] deals with G protein-coupled receptor kinase 3 (Homo sapiens) (UniProt P35626). Kind of assay: Inhibition of recombinant full length human GRK3 assessed as residual activity at 1 uM using casein as substrate at 40 mins in presence of [gamma-33ATP] by scintillation counting based radiometry assay relative to control.
Sequence of G protein-coupled receptor kinase 3 (Homo sapiens) (P35626 whole entry): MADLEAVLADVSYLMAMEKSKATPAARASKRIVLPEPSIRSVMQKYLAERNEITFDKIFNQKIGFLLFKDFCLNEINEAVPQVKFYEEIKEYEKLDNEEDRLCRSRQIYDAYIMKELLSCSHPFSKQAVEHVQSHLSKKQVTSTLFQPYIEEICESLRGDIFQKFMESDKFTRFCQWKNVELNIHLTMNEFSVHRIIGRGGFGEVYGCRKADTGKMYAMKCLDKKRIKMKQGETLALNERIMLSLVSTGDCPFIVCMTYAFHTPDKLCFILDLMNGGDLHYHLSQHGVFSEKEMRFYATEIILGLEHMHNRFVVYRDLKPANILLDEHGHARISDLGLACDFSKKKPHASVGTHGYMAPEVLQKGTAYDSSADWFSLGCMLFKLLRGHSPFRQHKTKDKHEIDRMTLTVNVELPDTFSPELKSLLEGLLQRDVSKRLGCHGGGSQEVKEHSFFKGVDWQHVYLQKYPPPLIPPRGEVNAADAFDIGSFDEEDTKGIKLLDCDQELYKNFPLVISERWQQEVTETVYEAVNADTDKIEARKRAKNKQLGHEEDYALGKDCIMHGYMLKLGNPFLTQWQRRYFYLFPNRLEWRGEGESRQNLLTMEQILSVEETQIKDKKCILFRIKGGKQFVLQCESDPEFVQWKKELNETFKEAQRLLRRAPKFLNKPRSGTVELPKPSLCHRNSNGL
Assay [6] has as its target Phosphatidylinositol 4-phosphate 5-kinase type-1 gamma (Homo sapiens) (UniProt O60331). The assay is described as follows: Inhibition of recombinant full-length human PIP5K1gamma at 1 uM assessed as residual activity at 1 uM using phosphatidylinositol 4-phosphate as substrate measured after 40 mins by HTRF assay.
Assay [7] has as its target Ephrin type-A receptor 1 (Homo sapiens) (UniProt P21709). The assay is described as follows: Inhibition of recombinant human EphA1 (568 to end residues) assessed as residual activity at 1 uM using KKKSPGEYVNIEFG as substrate at 40 mins in presence of [gamma-33ATP] by scintillation counting based radiometry assay relative to control.
The target in assay [8] is Glycogen synthase kinase-3 beta (Homo sapiens, UniProt P49841, H350L). The assay is described as follows: Inhibition of human GSK-3beta H350L mutant (2 to end residues) at 10 uM using phospho GS2 peptide as substrate after 40 mins by [gamma-33ATP] radiometric assay.
Sequence of Glycogen synthase kinase-3 beta (P49841 whole entry, looked up, stated change not applied): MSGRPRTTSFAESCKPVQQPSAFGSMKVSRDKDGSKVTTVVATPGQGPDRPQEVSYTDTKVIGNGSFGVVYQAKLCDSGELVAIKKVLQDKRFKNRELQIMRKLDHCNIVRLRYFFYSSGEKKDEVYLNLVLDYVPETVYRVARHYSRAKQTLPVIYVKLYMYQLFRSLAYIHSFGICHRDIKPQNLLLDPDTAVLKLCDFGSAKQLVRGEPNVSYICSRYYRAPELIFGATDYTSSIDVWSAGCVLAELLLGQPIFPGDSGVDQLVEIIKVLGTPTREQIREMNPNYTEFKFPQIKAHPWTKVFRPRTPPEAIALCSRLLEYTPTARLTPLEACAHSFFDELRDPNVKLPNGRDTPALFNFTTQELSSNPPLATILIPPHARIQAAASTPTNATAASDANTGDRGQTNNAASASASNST
The target of assay [9] is Eukaryotic translation initiation factor 2-alpha kinase 1 (Homo sapiens) (UniProt Q9BQI3). Kind of assay: Inhibition of human HRI (140 to end residues) assessed as residual activity at 1 uM using RSRSRSRSRSRSRSR as substrate after 120 mins by [gamma-33ATP] radiometric assay relative to control.
Assay [10] addresses DNA-dependent protein kinase catalytic subunit (Homo sapiens) (UniProt P78527). Kind of assay: Inhibition of recombinant full-length human DNA-PK at 1 uM assessed as residual activity at 1 uM using GST-cMyc-p53 as substrate measured after 40 mins by fluorescence assay.
Assay [11] concerns the target Tyrosine-protein kinase JAK1 (Homo sapiens) (UniProt P23458). The assay is described as follows: Inhibition of human JAK1 (866 to end residues) assessed as residual activity at 1 uM using GEEPLYWSFPAKKK as substrate after 40 mins by [gamma-33ATP] radiometric assay relative to control.
Assay [12] addresses Dual specificity protein kinase CLK2 (Homo sapiens) (UniProt P49760). Kind of assay: Inhibition of recombinant human CLK2 (138 to end residues) assessed as residual activity at 1 uM using YRRAAVPPSPSLSRHSSPHQS(p)EDEEE as substrate incubated 40 mins in presence of [gamma-33ATP] by scintillation counting based radiometry assay relative to control.
For assay [13], the target named is Tyrosine-protein kinase Fes/Fps (Homo sapiens) (UniProt P07332). Kind of assay: Inhibition of recombinant human FES (2 to end residues) assessed as residual activity at 1 uM using poly(Glu, Tyr) 4:1 as substrate at 40 mins in presence of [gamma-33ATP] by scintillation counting based radiometry assay relative to control.
The target of assay [14] is Serine/threonine-protein kinase PRP4 homolog (Homo sapiens) (UniProt Q13523). Kind of assay: Inhibition of recombinant human PRP4 (663 to end residues) assessed as residual activity at 1 uM using casein as substrate measured after 40 mins in presence of [gamma33P]ATP by scintillation counting method relative to control.
The target in assay [15] is Insulin receptor (Homo sapiens) (UniProt P06213). Kind of assay: Inhibition of human IR (1005 to 1310 residues) assessed as residual activity at 1 uM using KKSRGDYMTMQIG as substrate after 40 mins by [gamma-33ATP] radiometric assay relative to control.
The target in assay [16] is LIM domain kinase 2 (Homo sapiens) (UniProt P53671). Kind of assay: Inhibition of recombinant human LIMK2 assessed as residual activity after 1 uM by radiometry assay relative to control.
Sequence of LIM domain kinase 2 (Homo sapiens) (P53671 whole entry, looked up, the tested form may be a part): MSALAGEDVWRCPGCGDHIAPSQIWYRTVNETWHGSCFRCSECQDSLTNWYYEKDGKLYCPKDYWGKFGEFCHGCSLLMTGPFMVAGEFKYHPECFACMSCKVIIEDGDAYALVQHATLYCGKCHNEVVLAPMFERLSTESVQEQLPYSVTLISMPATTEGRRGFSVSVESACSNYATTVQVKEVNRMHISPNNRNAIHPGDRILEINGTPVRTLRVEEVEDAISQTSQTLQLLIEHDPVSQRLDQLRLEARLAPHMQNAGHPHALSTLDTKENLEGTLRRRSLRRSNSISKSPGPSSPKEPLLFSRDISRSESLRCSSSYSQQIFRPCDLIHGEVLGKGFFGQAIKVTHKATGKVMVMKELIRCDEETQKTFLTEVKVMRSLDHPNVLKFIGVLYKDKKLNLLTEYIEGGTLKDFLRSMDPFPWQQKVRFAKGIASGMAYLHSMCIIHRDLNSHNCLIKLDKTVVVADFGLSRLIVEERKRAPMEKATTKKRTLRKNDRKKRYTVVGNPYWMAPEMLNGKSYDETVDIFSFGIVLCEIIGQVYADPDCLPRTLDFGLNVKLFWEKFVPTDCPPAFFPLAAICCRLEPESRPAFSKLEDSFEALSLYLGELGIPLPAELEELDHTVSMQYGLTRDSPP
The target in assay [17] is Serine/threonine-protein kinase MARK2 (Homo sapiens) (UniProt Q7KZI7). Kind of assay: Inhibition of recombinant full-length human PAR1Balpha assessed as residual activity at 1 uM using KKKVSRSGLYRSPSMPENLNRPR as substrate measured after 40 mins in presence of [gamma33P]ATP by scintillation counting method relative to control.
Sequence of Serine/threonine-protein kinase MARK2 (Homo sapiens) (Q7KZI7 whole entry): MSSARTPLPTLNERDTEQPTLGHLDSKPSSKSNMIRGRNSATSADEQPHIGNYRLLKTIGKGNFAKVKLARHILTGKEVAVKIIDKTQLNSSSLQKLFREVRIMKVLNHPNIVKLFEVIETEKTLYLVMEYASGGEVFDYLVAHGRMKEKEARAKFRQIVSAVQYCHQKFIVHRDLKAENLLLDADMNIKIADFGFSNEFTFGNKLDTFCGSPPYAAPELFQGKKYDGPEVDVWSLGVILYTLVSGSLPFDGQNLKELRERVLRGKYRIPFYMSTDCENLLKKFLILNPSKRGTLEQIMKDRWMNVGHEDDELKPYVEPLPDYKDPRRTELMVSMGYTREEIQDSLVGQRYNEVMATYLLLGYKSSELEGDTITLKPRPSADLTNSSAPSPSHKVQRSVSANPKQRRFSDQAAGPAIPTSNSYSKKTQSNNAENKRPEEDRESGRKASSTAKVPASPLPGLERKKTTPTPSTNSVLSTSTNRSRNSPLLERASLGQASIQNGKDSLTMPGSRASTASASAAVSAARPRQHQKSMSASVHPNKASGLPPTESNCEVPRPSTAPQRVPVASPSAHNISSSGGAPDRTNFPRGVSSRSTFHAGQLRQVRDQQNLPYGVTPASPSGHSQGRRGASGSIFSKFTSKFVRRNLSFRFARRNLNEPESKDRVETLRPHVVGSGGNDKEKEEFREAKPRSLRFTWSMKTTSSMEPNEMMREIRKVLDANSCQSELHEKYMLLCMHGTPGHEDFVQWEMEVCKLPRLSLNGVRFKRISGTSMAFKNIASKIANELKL
Assay [18] has as its system Platelet-derived growth factor receptor alpha (Homo sapiens), P16234 [D842V]. The assay is described as follows: Inhibition of human PDGFRalpha D842V mutant (550 to end residues) assessed as residual activity at 1 uM using GGMEDIYFEFMGGKKK as substrate measured after 40 mins in presence of [gamma33P]ATP by scintillation counting method relative to control.
The target in assay [19] is Activin receptor type-1-like (Homo sapiens) (UniProt P37023). The assay is described as follows: Inhibition of recombinant human ALK1 (142 to end residues) assessed as residual activity at 1 uM using casein as substrate incubated for 40 mins in presence of [gamma-33ATP] by scintillation counting based radiometry assay relative to control.
The target of assay [20] is Serine/threonine-protein kinase Nek11 (Homo sapiens) (UniProt Q8NG66). Kind of assay: Inhibition of recombinant full length human NEK11 assessed as residual activity at 1 uM myelin basic protein as substrate measured after 40 mins in presence of [gamma33P]ATP by scintillation counting method relative to control.
The test system of assay [21] is Serine/threonine-protein kinase A-Raf (Homo sapiens), P10398 [Y301D,Y302D]. The assay is described as follows: Inhibition of recombinant human A-Raf Y301D/Y302D mutant (273 to end residues) assessed as residual activity at 1 uM using myelin basic protein as substrate incubated for 40 mins in presence of [gamma-33ATP] by scintillation counting based radiometry assay relative to control.

The subject of assay [22] is SNF-related serine/threonine-protein kinase (Homo sapiens), Q9NRH2 [UNDEFINED MUTATION]. Kind of assay: Inhibition of human SNRK E97G/P116A mutant (65 to 409 residues) assessed as residual activity at 1 uM using KKLRRTLSFAEPG as substrate measured after 40 mins in presence of [gamma33P]ATP by scintillation counting method relative to control.

Sequence of Phosphatidylinositol 4-phosphate 5-kinase type-1 gamma (Homo sapiens) (O60331 whole entry): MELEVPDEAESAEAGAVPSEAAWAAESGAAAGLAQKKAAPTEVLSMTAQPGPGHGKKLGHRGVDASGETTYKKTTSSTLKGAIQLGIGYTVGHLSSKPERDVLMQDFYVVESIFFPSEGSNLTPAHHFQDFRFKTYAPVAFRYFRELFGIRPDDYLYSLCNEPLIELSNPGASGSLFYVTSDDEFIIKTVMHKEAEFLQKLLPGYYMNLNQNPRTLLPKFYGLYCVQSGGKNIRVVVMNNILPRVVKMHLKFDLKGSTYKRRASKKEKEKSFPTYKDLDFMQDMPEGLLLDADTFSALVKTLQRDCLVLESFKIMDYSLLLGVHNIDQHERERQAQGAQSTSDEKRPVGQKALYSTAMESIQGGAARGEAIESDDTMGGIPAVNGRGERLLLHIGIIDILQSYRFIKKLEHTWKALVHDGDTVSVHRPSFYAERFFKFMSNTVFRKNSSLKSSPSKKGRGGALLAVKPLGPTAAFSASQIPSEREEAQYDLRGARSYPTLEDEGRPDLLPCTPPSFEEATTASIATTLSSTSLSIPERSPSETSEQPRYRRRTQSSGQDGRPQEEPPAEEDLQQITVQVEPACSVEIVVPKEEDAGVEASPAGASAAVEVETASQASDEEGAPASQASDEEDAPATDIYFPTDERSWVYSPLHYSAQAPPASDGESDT
Sequence of Platelet-derived growth factor receptor alpha (Homo sapiens), P16234 [D842V] (P16234 whole entry D842V): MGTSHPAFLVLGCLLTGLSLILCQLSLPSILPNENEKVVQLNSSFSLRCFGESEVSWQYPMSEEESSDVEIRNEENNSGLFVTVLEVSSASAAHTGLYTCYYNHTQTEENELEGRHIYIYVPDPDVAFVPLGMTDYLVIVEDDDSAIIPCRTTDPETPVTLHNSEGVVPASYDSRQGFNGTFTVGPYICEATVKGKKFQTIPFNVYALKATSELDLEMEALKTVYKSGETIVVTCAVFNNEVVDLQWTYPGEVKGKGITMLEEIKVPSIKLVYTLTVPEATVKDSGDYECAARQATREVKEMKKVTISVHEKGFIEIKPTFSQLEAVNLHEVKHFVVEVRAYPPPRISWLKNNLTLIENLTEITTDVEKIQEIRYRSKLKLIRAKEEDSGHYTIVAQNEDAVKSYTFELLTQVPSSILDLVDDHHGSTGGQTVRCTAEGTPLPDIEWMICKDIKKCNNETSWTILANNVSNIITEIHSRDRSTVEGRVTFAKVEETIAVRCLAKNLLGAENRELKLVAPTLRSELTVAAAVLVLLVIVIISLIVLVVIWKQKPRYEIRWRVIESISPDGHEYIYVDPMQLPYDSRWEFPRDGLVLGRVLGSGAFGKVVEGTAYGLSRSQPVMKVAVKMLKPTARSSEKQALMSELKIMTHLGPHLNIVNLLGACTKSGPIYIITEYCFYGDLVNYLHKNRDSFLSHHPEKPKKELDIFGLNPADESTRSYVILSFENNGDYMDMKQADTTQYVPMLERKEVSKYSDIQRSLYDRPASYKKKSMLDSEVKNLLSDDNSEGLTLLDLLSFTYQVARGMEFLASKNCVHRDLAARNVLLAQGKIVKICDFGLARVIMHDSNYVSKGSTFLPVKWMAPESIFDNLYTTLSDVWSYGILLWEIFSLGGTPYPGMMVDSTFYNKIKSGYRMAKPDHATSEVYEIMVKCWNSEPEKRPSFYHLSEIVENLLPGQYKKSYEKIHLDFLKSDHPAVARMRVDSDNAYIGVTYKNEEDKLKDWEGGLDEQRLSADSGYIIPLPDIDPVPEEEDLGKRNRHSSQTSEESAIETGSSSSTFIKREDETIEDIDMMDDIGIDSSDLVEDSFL

What is called IC50 is the concentration needed to halve the response being measured. A lower IC50 goes with higher potency. Take `N=C1NC(=O)/C(=C\c2ccc(-c3cccc([N+](=O)[O-])c3)o2)S1`: the Activity in [1] is 102%; in assay [2], 97%; in [3] it was 82%; in assay [4], 96%; in [5] it was 94%; in [6], 101%. For the same molecule, the Activity was found to be 100% in [7]; 96% in assay [9]; 93% in assay [10]; 96% in [11]; 39% in assay [12]; 103% in assay [13]. The Activity in assay [14] came to 86%; in assay [15], 97%; in [16], 101%; in assay [17] it was 105%; in assay [18] it was 97%; in [19], 99%. Also, the results for the Activity in [20], in assay [21] and in assay [22] were 55%, 105% and 110%, respectively. This molecule also yielded a 50% inhibitory concentration (IC50) in [8] of 110 nM.
Regarding `C=CCOC(=O)c1cc(-c2ccc(/C=C3/NC(=S)NC3=O)o2)ccc1Cl`, the Activity amounted to 107% in assay [1]; 96% in [2]; 93% in assay [3]; 99% in assay [4]; 117% in [5]; 100% in assay [6]. Also, the Activity in assay [7] was 104%; in [9], 101%; in assay [10], 107%; in [11], 106%; in assay [12], 38%; in assay [13], 91%. The Activity in [14] amounted to 92%; in assay [15], 108%; in [16] it was 95%; in [17], 95%; in assay [18], 100%; in assay [19], 95%. In addition, the results for the Activity in assay [20], in assay [21] and in assay [22] were 62%, 111% and 83%, respectively. In assay [8], this molecule showed an IC50 of 218 nM.

The record behind these values is ChEMBL document CHEMBL4334438, “Discovery of novel glycogen synthase kinase-3α inhibitors: Structure-based virtual screening, preliminary SAR and biological evaluation for treatment of acute myeloid leukemia” (Eur J Med Chem, 2019).
